Experimental data from ChEMBL document CHEMBL1201862, “PubChem BioAssay data set” (2004).
Active and inactive are the calls of the source.

Key:
[1] = Luminescence Cell-Based Dose Retest to Confirm Inhibitors of Cancer Stem Cells. [Related pubchem assays (depositor defined):AID2717, AID2721]; assay type: functional; details: Homo sapiens
[2] = tested on: Streptococcus sp. 'group A'; test: Streptococcus pyogenes SK(-)GAS viability under kanamycin – luminescence, BacTiterGlo, confirmation, counter-screen for streptokinase expression inhibitor project, dose response (AID 1900); assay type: functional, organism-based
[3] = microbe, parasite or virus in culture; assay type: functional; details: Mycobacterium tuberculosis
[4] = molecular target: T1, Streptokinase A (Streptococcus pyogenes serotype M1, UniProt P10520); test: viability-normalized secreted streptokinase activity reduction – plasminogen activation absorbance, OD405, dose response (AID 1914); assay type: functional, Streptococcus pyogenes M1 GAS;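 note: secreted streptokinase activity via plasminogen activation per viability signal from cell pellet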
T1 sequence (P10520 whole entry): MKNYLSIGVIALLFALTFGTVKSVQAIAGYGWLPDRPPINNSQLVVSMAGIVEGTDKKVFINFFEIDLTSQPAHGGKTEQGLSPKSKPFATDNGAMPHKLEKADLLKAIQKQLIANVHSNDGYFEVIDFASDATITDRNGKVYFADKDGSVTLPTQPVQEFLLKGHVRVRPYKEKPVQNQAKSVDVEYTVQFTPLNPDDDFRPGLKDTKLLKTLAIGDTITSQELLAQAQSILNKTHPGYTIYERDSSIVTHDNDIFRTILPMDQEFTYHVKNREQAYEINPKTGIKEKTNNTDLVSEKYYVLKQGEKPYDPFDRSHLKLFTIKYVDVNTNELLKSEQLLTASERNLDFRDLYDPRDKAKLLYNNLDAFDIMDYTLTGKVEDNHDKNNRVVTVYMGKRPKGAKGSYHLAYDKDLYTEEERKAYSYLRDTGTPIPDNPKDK

[5] = tested on: Streptococcus; test: GAS UMAA2166 growth inhibition – luminescence, BacTiterGlo, counter-screen for streptokinase expression inhibitor project, dose response (AID 1915); assay type: functional, organism-based;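 note: potency for reduction of bacterial viability or growth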
[6] = molecular target: Disintegrin and metalloproteinase domain-containing protein 17 (Homo sapiens, UniProt P78536); test: inhibition of ADAM17 substrate cleavage – biochemical, quenched FRET substrate, counter-screen for ADAM10 exosite inhibitor project, dose response (AID 743253)
[7] = molecular target: T2, Cytochrome P450 1A2 (Homo sapiens, UniProt P05177);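 note: PubChem cytochrome P450 panel assay, CYP1A2 panel member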
T2 sequence (P05177 whole entry): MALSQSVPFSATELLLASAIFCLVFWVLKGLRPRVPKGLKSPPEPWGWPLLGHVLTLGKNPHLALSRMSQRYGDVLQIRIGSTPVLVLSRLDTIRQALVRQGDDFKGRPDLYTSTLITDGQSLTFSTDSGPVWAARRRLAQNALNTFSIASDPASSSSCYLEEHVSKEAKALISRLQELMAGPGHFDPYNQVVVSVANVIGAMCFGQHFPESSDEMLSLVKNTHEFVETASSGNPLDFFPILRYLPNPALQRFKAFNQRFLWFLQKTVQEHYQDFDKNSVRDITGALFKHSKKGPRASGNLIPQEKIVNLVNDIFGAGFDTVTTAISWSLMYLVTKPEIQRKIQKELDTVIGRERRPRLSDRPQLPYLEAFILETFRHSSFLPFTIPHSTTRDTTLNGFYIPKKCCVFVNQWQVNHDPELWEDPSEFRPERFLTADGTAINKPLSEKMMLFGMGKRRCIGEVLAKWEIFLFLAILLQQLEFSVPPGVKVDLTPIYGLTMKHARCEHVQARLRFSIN

[8] = molecular target: T3, fMet-Leu-Phe receptor (Homo sapiens, UniProt P21462); test: formyl peptide receptor binders – dose response (AID 519); assay type: functional
T3 sequence (P21462 whole entry): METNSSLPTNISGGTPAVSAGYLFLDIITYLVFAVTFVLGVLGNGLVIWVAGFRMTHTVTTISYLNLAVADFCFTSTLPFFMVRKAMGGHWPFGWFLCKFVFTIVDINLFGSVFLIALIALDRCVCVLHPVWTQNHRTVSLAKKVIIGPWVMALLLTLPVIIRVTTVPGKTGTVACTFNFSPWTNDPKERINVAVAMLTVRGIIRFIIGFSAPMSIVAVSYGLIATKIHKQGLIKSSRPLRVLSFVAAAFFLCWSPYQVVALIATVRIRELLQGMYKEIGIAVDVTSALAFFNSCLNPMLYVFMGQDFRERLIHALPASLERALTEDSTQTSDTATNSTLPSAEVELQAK

[9] = molecular target: Cytochrome P450 2D6 (Homo sapiens, UniProt P10635);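 note: CYP2D6 member of a cytochrome P450 panel assay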
[10] = molecular target: Mitogen-activated protein kinase 10 (Homo sapiens, UniProt P53779); test: Dose response biochemical screening assay for inhibitors of c-Jun N-Terminal Kinase 3 (JNK3). [Related pubchem assays: 746 ]
[11] = molecular target: T4, Aminopeptidase N (Plasmodium falciparum FcB1/Columbia, UniProt O96935); test: malaria alanyl aminopeptidase activity blockers – biochemical, fluorogenic H-Leu-NHMec substrate, 1536-well (AID 1445); design: species or system Plasmodium falciparum 3D7, 3D7
T4 sequence (O96935 whole entry): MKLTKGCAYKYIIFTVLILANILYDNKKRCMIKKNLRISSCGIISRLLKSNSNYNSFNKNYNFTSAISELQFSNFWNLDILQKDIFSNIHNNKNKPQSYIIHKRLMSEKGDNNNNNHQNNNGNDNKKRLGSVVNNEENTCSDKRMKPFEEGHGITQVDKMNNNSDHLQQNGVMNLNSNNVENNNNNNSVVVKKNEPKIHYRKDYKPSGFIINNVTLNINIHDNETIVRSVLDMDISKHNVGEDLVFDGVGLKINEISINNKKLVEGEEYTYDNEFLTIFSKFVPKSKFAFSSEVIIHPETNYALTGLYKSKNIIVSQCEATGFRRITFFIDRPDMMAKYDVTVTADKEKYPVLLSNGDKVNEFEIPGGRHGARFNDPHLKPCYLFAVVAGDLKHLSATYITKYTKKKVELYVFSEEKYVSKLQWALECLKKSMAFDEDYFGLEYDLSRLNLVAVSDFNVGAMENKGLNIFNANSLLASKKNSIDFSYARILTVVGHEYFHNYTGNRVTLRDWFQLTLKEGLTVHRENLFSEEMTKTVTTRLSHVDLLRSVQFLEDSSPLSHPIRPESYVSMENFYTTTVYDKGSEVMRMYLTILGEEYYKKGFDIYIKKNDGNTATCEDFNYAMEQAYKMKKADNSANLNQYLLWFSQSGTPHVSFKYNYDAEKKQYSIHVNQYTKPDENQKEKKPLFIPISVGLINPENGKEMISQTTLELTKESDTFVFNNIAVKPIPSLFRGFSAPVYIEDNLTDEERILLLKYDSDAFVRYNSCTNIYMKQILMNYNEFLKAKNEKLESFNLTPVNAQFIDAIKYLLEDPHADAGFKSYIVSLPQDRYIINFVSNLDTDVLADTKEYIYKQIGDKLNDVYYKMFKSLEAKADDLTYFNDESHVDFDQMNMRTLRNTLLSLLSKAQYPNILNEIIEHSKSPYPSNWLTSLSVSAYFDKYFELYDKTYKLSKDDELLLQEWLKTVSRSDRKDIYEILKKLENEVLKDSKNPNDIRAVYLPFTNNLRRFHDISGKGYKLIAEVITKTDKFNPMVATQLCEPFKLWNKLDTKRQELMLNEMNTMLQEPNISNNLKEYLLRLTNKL

[12] = molecular target: Endoplasmic reticulum aminopeptidase 1 (Homo sapiens, UniProt Q9NZ08); test: inhibition of human ERAP1 enzyme activity – biochemical, cherry-pick, set 2, plate reader, dose response (AID 743314)
[13] = cells; details: HEK293
[14] = reduction of Shn3 3'UTR-driven luciferase in osteoblasts – cell-based, Clone20 osteoblasts, firefly luciferase, cherry-picked, dose response (AID 624132); assay type: functional;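 note: firefly luciferase luminescence from reporter carrying the Shn3 3'UTR in osteoblasts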
[15] = Shn3 3'UTR reporter signal decrease – cell-based, Clone20 osteoblasts, firefly luciferase, cherry-pick, set 2, Schnurri-3 inhibitor project, dose response (AID 720490); assay type: functional;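 note: actives lower the luminescence signal as inhibitors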
[16] = non-specific 3'UTR reporter inhibition in Clone20-Shn3RL – cell-based, Renilla luciferase, cherry-picked, counter-screen for Shn3 inhibitor project, dose response (AID 624133); assay type: functional
[17] = molecular target: Peroxisome proliferator-activated receptor gamma/Nuclear receptor coactivator 2 (Homo sapiens, UniProt P37231); test: TR-FRET dose response biochemical High Throughput Screening assay for agonists of the steroid receptor coactivator 2 (SRC-2) recruitment by the peroxisome proliferator-activated receptor gamma (PPAR gamma): non-selective agonists. [Related pubchem assays: 1297, 1032 ]; assay type: functional
[18] = molecular target: Peroxisome proliferator-activated receptor gamma/Nuclear receptor coactivator 1 (Homo sapiens, UniProt P37231); test: TR-FRET dose response biochemical High Throughput Screening assay for agonists of the steroid receptor coactivator 1 (SRC-1) recruitment by the peroxisome proliferator-activated receptor gamma (PPAR gamma): non-selective agonists. [Related pubchem assays (depositor defined):AID1300, AID1808, AID504735, AID631]; assay type: protein assay
[19] = molecular target: Peroxisome proliferator-activated receptor gamma/Nuclear receptor coactivator 3 (Homo sapiens, UniProt P37231); test: TR-FRET dose response biochemical High Throughput Screening assay for agonists of the steroid receptor coactivator 3 (SRC-3) recruitment by the peroxisome proliferator-activated receptor gamma (PPAR gamma): non-selective agonists. [Related pubchem assays: 1301 (Confirmation screen.), 1048 (Primary screen.)]; assay type: functional
[20] = fluconazole-exposed Candida albicans growth modulators – fluorescence, retest, confirmation (AID 2467); assay type: functional, cell-based
[21] = molecular target: T5, Protein skinhead-1 (Caenorhabditis elegans, UniProt P34707); assay type: functional
T5 sequence (P34707 whole entry): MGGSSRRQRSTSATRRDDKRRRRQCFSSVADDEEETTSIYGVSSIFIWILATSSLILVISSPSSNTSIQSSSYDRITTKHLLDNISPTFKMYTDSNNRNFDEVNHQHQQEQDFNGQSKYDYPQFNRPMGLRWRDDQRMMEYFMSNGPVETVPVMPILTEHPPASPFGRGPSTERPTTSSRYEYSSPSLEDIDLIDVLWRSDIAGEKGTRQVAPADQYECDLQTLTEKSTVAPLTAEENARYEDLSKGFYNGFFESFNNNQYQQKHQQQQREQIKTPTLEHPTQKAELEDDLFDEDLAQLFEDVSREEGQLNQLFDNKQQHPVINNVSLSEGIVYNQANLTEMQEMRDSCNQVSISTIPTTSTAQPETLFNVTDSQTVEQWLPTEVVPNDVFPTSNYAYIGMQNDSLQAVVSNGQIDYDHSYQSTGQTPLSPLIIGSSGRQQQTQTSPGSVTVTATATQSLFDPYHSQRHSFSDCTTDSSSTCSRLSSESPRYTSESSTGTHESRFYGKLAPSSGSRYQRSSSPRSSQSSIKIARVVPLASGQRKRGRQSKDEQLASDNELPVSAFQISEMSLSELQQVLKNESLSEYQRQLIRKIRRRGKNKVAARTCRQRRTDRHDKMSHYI

[22] = NIH-3T3 fibroblast cytotoxicity, dose response, cytotoxicity control, cell-based, fluorescence, Alamar Blue, secondary assay (AID 2327); assay type: functional;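 note: NIH-3T3 mouse fibroblasts cultured with fluconazole at 8 µg/mL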
[23] = A2780 cell killing – plate reader, dry powder samples, cytotoxicity control, dose response (AID 743046); assay type: functional, cell-based
[24] = OVCAR8 cell viability loss – plate reader, dry powder samples, PAX8 project, dose response (AID 743197); assay type: functional, cell-based; details: OVCAR-8
[25] = OVCAR-3 cell viability loss – plate reader, dry powder samples, PAX8 inhibitor project, dose response (AID 743044); assay type: functional, cell-based
[26] = molecular target: Paired box protein Pax-8 (Homo sapiens, UniProt Q06710); test: PAX8 transcriptional activity inhibition in RMG-I – RMG-I cells, luciferase, cherry-pick, dose response (AID 687027); assay type: functional, cell-based;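 note: luciferase reporter driven by Pax8 target thyroperoxidase promoter measured by SteadyGlo luminescence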
[27] = viability loss in MITF-independent A375 cells – cell-based, CellTiter-Glo luminescence, dry powder, set 2, counter-screen for MITF inhibitor project, dose response (AID 624489); assay type: functional; details: A-375;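 note: actives are compounds lowering A375 viability meaning general cytotoxicity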
[28] = cytotoxicity in MITF-independent A375 cells – cell-based, CellTiter-Glo luminescence, dry powder, set 4, counter-screen for MITF inhibitor project, dose response (AID 624364); assay type: functional; details: A-375;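 note: A375 melanoma cells are MITF independent so this is a counter screen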

Sequence of Disintegrin and metalloproteinase domain-containing protein 17 (P78536 whole entry, the tested form may be a part): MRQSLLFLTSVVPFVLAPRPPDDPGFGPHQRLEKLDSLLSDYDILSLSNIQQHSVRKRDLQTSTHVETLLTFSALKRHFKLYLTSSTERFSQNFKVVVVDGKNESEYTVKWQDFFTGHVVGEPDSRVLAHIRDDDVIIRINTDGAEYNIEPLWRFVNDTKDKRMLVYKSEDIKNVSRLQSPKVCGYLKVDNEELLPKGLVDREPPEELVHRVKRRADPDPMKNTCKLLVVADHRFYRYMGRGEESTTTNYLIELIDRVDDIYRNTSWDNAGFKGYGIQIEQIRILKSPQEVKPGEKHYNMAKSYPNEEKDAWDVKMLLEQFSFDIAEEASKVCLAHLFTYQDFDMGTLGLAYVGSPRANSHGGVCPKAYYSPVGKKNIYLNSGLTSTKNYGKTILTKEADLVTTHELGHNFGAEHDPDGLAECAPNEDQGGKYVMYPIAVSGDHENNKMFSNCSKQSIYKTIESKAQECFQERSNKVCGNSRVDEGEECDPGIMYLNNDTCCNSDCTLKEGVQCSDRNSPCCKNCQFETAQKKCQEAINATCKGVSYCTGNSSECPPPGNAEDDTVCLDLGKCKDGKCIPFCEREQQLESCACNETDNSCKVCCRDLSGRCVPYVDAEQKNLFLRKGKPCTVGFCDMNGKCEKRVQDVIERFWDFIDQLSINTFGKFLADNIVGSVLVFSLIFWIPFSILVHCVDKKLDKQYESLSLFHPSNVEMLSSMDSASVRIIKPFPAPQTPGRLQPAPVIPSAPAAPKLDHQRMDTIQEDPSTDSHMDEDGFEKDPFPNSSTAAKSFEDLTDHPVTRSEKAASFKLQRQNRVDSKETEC
Sequence of Paired box protein Pax-8 (Q06710 whole entry): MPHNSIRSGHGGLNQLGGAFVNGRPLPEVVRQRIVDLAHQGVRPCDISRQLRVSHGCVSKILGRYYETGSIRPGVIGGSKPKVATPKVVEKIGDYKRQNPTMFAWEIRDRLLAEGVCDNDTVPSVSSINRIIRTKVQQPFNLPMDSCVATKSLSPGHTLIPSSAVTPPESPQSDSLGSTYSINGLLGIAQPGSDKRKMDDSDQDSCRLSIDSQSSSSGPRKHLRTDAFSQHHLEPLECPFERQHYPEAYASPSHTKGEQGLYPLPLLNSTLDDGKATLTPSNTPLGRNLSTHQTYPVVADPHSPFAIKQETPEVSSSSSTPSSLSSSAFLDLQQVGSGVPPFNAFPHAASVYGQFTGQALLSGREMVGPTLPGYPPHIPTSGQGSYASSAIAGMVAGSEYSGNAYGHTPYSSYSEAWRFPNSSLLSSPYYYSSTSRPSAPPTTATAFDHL
Sequence of Endoplasmic reticulum aminopeptidase 1 (Q9NZ08 whole entry): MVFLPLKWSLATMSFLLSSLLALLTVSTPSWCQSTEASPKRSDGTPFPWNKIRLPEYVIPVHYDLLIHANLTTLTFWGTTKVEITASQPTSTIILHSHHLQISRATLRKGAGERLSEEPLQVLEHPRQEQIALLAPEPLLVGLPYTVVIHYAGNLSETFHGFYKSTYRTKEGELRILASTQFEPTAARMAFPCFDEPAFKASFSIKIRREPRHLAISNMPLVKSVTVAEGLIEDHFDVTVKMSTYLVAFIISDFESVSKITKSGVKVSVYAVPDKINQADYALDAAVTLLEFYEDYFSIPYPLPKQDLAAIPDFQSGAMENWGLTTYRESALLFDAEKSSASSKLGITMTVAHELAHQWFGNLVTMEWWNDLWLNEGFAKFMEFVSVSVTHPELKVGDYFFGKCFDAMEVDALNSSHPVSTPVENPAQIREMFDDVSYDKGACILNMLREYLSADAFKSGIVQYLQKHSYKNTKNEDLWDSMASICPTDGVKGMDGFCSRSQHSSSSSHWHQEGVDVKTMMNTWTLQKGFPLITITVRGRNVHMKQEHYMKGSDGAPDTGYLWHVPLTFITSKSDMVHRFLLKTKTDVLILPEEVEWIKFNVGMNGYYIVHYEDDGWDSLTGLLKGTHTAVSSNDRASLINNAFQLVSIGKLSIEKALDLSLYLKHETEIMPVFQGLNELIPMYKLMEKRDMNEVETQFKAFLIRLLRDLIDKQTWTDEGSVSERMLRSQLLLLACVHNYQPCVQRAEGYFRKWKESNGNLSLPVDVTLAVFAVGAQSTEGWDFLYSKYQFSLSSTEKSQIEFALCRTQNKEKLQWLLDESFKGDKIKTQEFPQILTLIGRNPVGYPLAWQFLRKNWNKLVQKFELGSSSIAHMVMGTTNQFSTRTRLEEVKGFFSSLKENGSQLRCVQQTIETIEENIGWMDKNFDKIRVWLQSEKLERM
Sequence of Peroxisome proliferator-activated receptor gamma/Nuclear receptor coactivator 3 (P37231 whole entry): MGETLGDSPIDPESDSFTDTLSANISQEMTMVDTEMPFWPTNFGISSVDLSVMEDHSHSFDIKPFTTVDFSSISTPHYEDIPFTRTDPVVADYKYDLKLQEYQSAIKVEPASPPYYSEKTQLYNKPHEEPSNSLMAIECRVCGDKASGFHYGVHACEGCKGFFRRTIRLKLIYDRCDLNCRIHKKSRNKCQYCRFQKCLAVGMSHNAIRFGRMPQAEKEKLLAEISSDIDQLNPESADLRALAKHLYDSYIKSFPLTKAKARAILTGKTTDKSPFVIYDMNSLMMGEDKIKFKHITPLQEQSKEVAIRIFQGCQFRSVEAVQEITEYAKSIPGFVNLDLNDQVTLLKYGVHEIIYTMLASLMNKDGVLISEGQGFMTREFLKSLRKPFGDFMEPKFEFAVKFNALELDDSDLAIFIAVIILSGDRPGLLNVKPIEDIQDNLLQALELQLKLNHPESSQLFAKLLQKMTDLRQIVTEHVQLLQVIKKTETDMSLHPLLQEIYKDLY
Sequence of Peroxisome proliferator-activated receptor gamma/Nuclear receptor coactivator 3 (Q9Y6Q9 whole entry, further chain): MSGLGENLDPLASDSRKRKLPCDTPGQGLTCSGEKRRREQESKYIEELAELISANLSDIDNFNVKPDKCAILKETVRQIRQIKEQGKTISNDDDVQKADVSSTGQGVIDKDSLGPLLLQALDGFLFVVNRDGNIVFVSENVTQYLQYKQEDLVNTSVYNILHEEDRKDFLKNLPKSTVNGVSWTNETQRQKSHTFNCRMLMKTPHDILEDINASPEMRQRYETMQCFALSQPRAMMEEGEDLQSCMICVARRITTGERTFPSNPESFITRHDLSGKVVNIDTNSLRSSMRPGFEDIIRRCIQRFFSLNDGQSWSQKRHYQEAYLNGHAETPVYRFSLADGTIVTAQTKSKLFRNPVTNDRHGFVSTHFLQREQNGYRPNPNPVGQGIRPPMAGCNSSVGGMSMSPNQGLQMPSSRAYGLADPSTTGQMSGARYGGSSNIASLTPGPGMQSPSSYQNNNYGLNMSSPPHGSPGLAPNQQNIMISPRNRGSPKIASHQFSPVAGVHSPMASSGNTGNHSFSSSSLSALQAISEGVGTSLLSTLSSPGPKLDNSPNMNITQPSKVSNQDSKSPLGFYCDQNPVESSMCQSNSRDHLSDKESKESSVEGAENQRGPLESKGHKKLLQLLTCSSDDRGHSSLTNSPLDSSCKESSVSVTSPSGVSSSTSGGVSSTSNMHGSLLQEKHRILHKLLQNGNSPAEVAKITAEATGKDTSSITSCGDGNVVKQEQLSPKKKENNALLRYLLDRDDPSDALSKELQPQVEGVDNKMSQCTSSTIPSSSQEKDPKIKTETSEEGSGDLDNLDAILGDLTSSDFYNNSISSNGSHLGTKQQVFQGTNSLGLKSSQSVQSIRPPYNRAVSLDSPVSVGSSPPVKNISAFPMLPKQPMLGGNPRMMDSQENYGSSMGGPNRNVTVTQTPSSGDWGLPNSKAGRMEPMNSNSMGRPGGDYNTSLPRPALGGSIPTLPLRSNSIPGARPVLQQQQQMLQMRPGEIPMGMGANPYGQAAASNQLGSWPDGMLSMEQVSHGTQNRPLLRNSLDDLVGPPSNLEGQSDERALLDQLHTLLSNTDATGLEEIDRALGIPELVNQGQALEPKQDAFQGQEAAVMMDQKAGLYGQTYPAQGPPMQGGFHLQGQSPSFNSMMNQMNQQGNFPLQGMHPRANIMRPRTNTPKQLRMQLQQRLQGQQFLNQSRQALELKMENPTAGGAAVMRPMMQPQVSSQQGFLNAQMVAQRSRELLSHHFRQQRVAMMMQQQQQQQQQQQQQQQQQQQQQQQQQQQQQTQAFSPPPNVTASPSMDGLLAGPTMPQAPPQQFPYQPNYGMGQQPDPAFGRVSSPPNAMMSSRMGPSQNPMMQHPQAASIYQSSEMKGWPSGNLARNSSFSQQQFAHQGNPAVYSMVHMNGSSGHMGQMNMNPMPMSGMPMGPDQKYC
Sequence of Mitogen-activated protein kinase 10 (P53779 whole entry): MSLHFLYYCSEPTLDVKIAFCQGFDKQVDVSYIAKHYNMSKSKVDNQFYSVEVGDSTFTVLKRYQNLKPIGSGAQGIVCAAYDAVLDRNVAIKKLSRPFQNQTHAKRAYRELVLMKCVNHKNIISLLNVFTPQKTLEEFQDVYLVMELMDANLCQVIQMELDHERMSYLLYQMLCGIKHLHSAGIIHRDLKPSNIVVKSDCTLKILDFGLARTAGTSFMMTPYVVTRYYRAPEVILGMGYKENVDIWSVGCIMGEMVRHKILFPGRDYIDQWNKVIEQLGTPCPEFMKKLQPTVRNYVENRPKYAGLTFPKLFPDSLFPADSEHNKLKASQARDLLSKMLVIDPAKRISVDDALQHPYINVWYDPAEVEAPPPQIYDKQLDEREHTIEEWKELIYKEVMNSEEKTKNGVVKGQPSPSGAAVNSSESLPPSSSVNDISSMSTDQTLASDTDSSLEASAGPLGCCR

O=C(Nc1ccc(OCC(F)(F)C(F)F)c(C(F)(F)F)c1)c1ccc(Cl)cc1
AC50 [1]: 3.52 µM (active)
EC50 [2]: 5.77 µM (active)
CC50 [3]: 13.4 µM (active)
EC50 [4]: 1.77 µM (active)
EC50 [5]: 7.49 µM (active)
IC50 [6]: > 69.5 µM (inactive)

Cc1ccc(C(=O)C2=C(O)C(=O)N(CCCn3ccnc3)C2c2ccc(OC(C)C)cc2)o1 (stereo not drawn)
AC50 [7]: 39.8 µM (inconclusive)
Ki [8]: > 66.7 µM (inactive)
AC50 [9]: 12.6 µM (inconclusive)
IC50 [10]: 37.4 µM (not active)

Cc1cc(=O)oc2c(CN3CCN(C)CC3)c(O)c(Cl)cc12
IC50 [11]: 33.6 µM (active)
AC50 [12]: 6.77 µM (active)

CCCOc1c(Br)cc(C2C3=C(CCCC3=O)N(C)C3=C2C(=O)CCC3)cc1OC
AC50 [13]: > 52 µM (inactive)

Cc1nn2c(O)c3c(nc2c1-c1ccccc1)CCC3
Ki [8]: 20.4 µM (inactive)

COc1ccccc1NC(=O)Cn1cc(C(=O)C2CC2)c2ccccc21
AC50 [14]: 4.76 µM (active)
AC50 [15]: 6.08 µM (active)
AC50 [16]: 29 µM (active)

COc1ccc(C(=O)C2=C(O)C(=O)N(c3nc(C)c(C)s3)C2c2ccco2)cc1 (stereo not drawn)
EC50 [17]: 37.9 µM (not active)
EC50 [18]: > 79.4 µM (inactive)
Ki [8]: > 66.7 µM (inactive)
EC50 [19]: > 79.4 µM (not active)

CCc1cccc(C)c1N=C(S)NCc1ccc2c(c1)cc(C)n2C
EC50 [20]: > 38 µM (not active)
IC50 [21]: > 100 µM (inactive)
EC50 [22]: 51.5 µM (active)
AC50 [13]: > 52 µM (inactive)

C[C@@H]1CCCCO[C@H](CN(C)C(=O)Cc2ccccc2)[C@@H](C)CN([C@@H](C)CO)C(=O)c2cc(NC(=O)Nc3ccc(C(F)(F)F)cc3)ccc2O1
AC50 [23]: 54.7 µM (active)
AC50 [24]: 58.8 µM (active)
AC50 [25]: 54.5 µM (active)
AC50 [26]: 2.85 µM (active)

NC1=C(c2ccc(OC(F)(F)F)cc2)C(=O)c2ccccc2C1=O
AC50 [27]: > 70 µM (inactive)
AC50 [28]: > 70 µM (inactive)

CC(=O)N(C)C1=C(N2CCCCC2)C(=O)c2ccccc2C1=O
AC50 [27]: 14.8 µM (active)
AC50 [28]: 27.1 µM (active)
